{"source": "paper PMC6199744", "about": "“Development of Chemical Proteomics for the Folateome and Analysis of the Kinetoplastid Folateome” (ACS Infectious Diseases, 2018)", "type_in_all_cases": "binding", "key": {"[1]": {"target": "T1, HeLa cell extract proteins (Homo sapiens, UniProt P42330)", "T1 construct": "endogenous in cells; host or cells: HeLa cell extract", "T1 sequence (P42330 1-323)": "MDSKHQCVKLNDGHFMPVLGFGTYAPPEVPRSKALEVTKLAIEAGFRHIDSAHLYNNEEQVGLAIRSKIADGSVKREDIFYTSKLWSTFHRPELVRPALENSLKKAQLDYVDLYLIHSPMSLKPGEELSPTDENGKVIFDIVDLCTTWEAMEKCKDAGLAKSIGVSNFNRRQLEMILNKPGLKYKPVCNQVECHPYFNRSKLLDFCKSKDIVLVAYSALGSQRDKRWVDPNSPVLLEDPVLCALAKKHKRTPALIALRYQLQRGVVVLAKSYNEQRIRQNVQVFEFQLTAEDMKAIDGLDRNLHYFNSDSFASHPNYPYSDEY"}, "[2]": {"target": "T2, HeLa cell extract proteins (Homo sapiens, UniProt P53597)", "T2 construct": "endogenous in cells; host or cells: HeLa cell extract", "T2 sequence (P53597 41-346)": "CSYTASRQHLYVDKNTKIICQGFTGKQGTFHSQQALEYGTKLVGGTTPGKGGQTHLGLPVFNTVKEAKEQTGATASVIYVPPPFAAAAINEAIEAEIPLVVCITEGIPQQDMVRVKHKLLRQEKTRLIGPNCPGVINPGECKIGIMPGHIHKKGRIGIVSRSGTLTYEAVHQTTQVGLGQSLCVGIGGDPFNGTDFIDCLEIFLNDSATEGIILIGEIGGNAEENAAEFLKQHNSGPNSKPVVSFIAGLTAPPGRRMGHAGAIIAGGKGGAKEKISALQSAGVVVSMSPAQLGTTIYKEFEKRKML"}, "[3]": {"target": "T3, HeLa cell extract proteins (Homo sapiens, UniProt P60891)", "T3 construct": "endogenous in cells; host or cells: HeLa cell extract", "T3 sequence (P60891 1-318)": "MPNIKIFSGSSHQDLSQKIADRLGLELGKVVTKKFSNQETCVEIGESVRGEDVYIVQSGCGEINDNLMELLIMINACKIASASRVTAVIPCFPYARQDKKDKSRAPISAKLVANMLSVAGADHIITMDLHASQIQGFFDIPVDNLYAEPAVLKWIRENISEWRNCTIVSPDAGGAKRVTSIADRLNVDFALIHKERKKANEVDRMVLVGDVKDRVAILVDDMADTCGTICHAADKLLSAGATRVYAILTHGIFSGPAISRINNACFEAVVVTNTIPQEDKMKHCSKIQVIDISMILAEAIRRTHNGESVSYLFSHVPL"}, "[4]": {"target": "T4, HeLa cell extract proteins (Homo sapiens, UniProt O75489)", "T4 construct": "endogenous in cells; host or cells: HeLa cell extract", "T4 sequence (O75489 37-264)": "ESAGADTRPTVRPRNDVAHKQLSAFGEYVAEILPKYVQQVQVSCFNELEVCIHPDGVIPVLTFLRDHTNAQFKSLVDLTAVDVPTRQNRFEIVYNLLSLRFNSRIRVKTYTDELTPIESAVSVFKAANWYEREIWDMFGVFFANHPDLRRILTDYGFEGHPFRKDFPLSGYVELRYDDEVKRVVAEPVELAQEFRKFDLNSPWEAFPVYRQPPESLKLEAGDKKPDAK", "conditions": "HeLa; protein NDUFS3"}, "[5]": {"target": "T5, HeLa cell extract proteins (Homo sapiens, UniProt O15111)", "T5 construct": "endogenous in cells; host or cells: HeLa cell extract", "T5 sequence (O15111 1-745)": "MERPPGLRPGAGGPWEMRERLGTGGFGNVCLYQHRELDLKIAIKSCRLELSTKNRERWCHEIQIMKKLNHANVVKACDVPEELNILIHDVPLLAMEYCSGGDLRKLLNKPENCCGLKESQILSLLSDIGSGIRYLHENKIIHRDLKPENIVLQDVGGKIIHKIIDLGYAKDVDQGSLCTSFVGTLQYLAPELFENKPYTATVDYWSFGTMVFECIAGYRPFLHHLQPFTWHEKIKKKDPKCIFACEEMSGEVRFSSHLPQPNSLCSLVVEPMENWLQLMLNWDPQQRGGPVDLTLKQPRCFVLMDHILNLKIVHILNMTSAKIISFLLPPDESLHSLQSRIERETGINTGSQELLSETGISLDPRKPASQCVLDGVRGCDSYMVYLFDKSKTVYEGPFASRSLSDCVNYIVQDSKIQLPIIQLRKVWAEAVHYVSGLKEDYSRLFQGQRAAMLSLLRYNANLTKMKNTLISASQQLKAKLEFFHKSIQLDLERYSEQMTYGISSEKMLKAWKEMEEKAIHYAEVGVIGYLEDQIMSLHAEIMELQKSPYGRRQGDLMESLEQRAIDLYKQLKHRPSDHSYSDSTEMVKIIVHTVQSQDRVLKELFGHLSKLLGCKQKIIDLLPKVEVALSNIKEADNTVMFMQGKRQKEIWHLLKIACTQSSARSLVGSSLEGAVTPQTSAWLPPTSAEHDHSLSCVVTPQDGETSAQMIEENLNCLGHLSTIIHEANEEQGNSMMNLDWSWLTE", "conditions": "HeLa; protein CHUK"}, "[6]": {"target": "T6, HeLa cell extract proteins (Homo sapiens, UniProt Q96RQ3)", "T6 construct": "endogenous in cells; host or cells: HeLa cell extract", "T6 sequence (Q96RQ3 42-725)": "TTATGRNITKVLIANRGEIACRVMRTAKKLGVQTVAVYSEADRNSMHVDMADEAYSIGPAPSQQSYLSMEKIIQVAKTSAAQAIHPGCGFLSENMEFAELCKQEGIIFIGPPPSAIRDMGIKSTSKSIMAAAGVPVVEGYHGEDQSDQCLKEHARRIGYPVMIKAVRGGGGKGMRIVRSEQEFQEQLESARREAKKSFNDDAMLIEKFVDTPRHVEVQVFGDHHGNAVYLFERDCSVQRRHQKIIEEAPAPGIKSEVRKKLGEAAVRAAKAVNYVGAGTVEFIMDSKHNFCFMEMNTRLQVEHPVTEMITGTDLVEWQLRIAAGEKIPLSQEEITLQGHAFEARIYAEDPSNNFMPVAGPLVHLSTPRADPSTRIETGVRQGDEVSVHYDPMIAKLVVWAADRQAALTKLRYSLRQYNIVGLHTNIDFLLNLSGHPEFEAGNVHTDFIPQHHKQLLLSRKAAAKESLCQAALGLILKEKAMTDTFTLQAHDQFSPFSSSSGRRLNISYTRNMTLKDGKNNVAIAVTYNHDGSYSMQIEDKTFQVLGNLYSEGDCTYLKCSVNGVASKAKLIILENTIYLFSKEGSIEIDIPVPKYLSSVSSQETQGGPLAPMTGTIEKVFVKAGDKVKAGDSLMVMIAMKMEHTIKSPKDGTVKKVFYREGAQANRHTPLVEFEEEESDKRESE", "conditions": "captured protein MCCC1; HeLa"}, "[7]": {"target": "T7, HeLa cell extract proteins (Homo sapiens, UniProt P04004)", "T7 construct": "endogenous in cells; host or cells: HeLa cell extract", "T7 sequence (P04004 20-478)": "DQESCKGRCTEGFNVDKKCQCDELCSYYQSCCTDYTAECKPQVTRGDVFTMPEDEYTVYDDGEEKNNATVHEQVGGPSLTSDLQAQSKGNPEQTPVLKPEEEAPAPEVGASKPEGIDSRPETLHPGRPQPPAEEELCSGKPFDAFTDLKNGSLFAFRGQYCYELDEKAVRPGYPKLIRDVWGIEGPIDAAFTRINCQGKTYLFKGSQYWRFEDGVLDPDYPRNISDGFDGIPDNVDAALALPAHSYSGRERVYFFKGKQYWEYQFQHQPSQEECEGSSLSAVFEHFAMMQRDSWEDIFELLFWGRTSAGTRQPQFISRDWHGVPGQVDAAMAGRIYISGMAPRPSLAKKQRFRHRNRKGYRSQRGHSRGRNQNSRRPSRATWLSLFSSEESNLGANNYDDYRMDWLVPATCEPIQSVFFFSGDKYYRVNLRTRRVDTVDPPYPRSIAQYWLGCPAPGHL", "conditions": "HeLa; protein VTN"}}, "note": "Where two headings read alike, the source gives them in different places."}
{"smiles": "Nc1nc2c(c(=O)[nH]1)N(C=O)C(CNc1ccc(C(=O)N[C@@H](CCC(=O)O)C(=O)O)cc1)CN2", "note": "(stereo partly drawn) [LEU, leucovorin]", "values": [{"measurement": "fold changes relative to vehicle control", "setting": "[1]; HeLa, protein AKR1C3", "result": 0.98}, {"measurement": "fold changes relative to vehicle control", "setting": "[2]; protein SUCLG1, HeLa", "result": 0.95}, {"measurement": "fold changes relative to vehicle control", "setting": "[3]; HeLa, protein PRPS1", "result": 1.12}]}
{"smiles": "Nc1nc2[nH]cc(CCc3ccc(C(=O)N[C@@H](CCC(=O)O)C(=O)O)cc3)c2c(=O)[nH]1", "note": "[PTX, pemetrexed]", "values": [{"measurement": "fold changes relative to vehicle control", "setting": "[1]", "result": 1.13}, {"measurement": "fold changes relative to vehicle control", "setting": "[2]", "result": 1.09}, {"measurement": "fold changes relative to vehicle control", "setting": "[3]", "result": 1.07}]}
{"smiles": "CCCCCCOc1ccc(Cc2cnc(N)nc2N)cc1", "note": "[compound 1]", "values": [{"measurement": "fold changes relative to vehicle control", "setting": "[4]", "result": 1.05}, {"measurement": "fold changes relative to vehicle control", "setting": "[5]", "result": 0.98}, {"measurement": "fold changes relative to vehicle control", "setting": "[6]", "result": 1.03}, {"measurement": "fold changes relative to vehicle control", "setting": "[7]", "result": 1}]}
{"smiles": "CCCCCCOc1cccc(Cc2cnc(N)nc2N)c1", "note": "[compound 2]", "values": [{"measurement": "fold changes relative to vehicle control", "setting": "[4]", "result": 1.19}, {"measurement": "fold changes relative to vehicle control", "setting": "[5]", "result": 1.04}, {"measurement": "fold changes relative to vehicle control", "setting": "[6]", "result": 1.15}, {"measurement": "fold changes relative to vehicle control", "setting": "[7]", "result": 0.91}]}
{"smiles": "Nc1nc2cccc(-c3ccccc3)c2n1Cc1ccc(Cl)c(Cl)c1", "note": "[compound 3]", "values": [{"measurement": "fold changes relative to vehicle control", "setting": "[4]", "result": 0.86}, {"measurement": "fold changes relative to vehicle control", "setting": "[5]", "result": 0.9}, {"measurement": "fold changes relative to vehicle control", "setting": "[6]", "result": 1.21}, {"measurement": "fold changes relative to vehicle control", "setting": "[7]", "result": 1.05}]}
{"smiles": "NCCOCCOCC(=O)Nc1nc2ncc(CNc3ccc(C(=O)NC(CCC(=O)O)C(=O)O)cc3)nc2c(=O)[nH]1", "note": "(stereo not drawn) [compound 6]", "values": [{"measurement": "fold changes relative to vehicle control", "setting": "[1]; HeLa, protein AKR1C3", "result": 1.3}, {"measurement": "fold changes relative to vehicle control", "setting": "[2]; protein SUCLG1, HeLa", "result": 1.3}, {"measurement": "fold changes relative to vehicle control", "setting": "[3]; HeLa, protein PRPS1", "result": 1.08}]}
{"smiles": "NCCCNc1ccc(C(=O)NC(CCC(=O)O)C(=O)O)cc1", "note": "(stereo not drawn) [compound 7]", "values": [{"measurement": "fold changes relative to vehicle control", "setting": "[1]; HeLa, protein AKR1C3", "result": 0.99}, {"measurement": "fold changes relative to vehicle control", "setting": "[2]; protein SUCLG1, HeLa", "result": 0.81}, {"measurement": "fold changes relative to vehicle control", "setting": "[3]; HeLa, protein PRPS1", "result": 0.9}]}
